What was measured:
[1] = target: T1, BSA (bovine serum albumin) (Bos taurus, UniProt P02769); assay: In vitro binding of ECMal-PROTAC to albumin (thiol-maleimide reaction), RP-HPLC; conditions: ARV-771 140 μM, BSA 200 μM; mixed for more than 60 minutes
T1 construct: free Cys34 thiol reacts with maleimide
Experimental: The binding rate of ECMal-PROTAC from example 1 and albumin was confirmed through RP-HPLC. Specifically, a BSA solution (200 μM) diluted with PBS was co-incubated by mixing it with an ECMal-PROTAC aqueous solution (140 μM) of example 1 at a 1:1 volume ratio. The culture was collected at incubation times of 0 minutes, 5 minutes, 30 minutes, and 60 minutes. It was quenched with mercaptoethanol, and HPLC spectra for each sample were acquired through concentration gradient of the eluent (ACN/H2O, 20/80 to 80/20 (v/v), 30 minutes).
To verify the albumin binding ability of the complex for cancer targeting (ECMal-PROTAC) of example 1, the mixture of BSA and the complex for cancer targeting (ECMal-PROTAC) was analyzed by LC-MS spectrum, and compared with the LC-MS spectrum of free BSA.
FIG. 4 is the HPLC spectrum of a mixture of BSA and the complex for cancer targeting (ECMal-PROTAC). According to this, it can be seen that BSA and the complex for cancer targeting (ECMal-PROTAC) rapidly bind through a thiol-maleimide click chemical reaction. To confirm the albumin binding ability of the complex for cancer targeting (ECMal-PROTAC) of example 1, bovine serum albumin (BSA), which has a structure similar to human serum albumin (HSA), was used for analysis.
At this time, the HPLC spectra were also analyzed for a co-incubation of ARV-771 (140 μM) and BSA solution (200 μM) mixed at a 1:1 volume ratio as a comparative example, and for the ECMal-PROTAC solution and BSA solution alone without any treatment of example 1.
From the HPLC results for the BSA and complex for cancer targeting (ECMal-PROTAC) mixture in Experimental Example 1 and the thiol-blocked BSA and complex for cancer targeting (ECMal-PROTAC) mixture in Experimental Example 2, the reduction in the HPLC peak area associated with the complex for cancer targeting (ECMal-PROTAC) was quantified.

BRD4 = target: T2, BRD4 (Mus musculus, UniProt Q9ESU6); assay: Western blot, BRD4 degradation in 4T1 cells; assay type: cell-based; conditions: 24 hours
T2 construct: Western blot after PROTAC (ARV-771 release, VHL recruiting)
Experimental: (§1) Accordingly, Western blot analysis was performed to confirm the anticancer ability by evaluating the presence or absence of degradation of BRD4 and other related proteins (e.g., c-Myc and Bcl-2) when cancer cells were treated with the complex for cancer targeting (ECMal-PROTAC) of example 1. The complex for cancer targeting (ECMal-PROTAC) of example 1 and ARV-771 were prepared as samples.
(§2) First, 1×10^5 4T1 cells were dispensed into each well of a 6-well culture plate and cultured for 24 hours at 37° C. and 5% carbon dioxide atmosphere. The cell culture medium was supplemented with various concentrations of ARV-771 (0 to 10 μM) or the complex for cancer targeting (ECMal-PROTAC) of example 1 (0 to 10 μM), and cultured at 37° C. for 24 hours. After the culture was completed, the cells were washed 3 times with PBS, and lysed with a lysis buffer containing 1% […]. Cell debris from the recovered lysate was removed by centrifugation at 12,000 rpm for 25 minutes. After recovering the supernatant, the protein amount was measured using a BCA kit. The supernatant was loaded onto a 10% sodium dodecyl sulfate-polyacrylamide gel. Electrophoresis (SDS-PAGE) was performed, followed by blotting onto a polyvinylidene difluoride (PVDF) membrane. After blotting, the PVDF membrane was treated with 5% BSA-containing tris buffered saline containing 0.1% Tween 20 (TBS-T) for 2 hours to suppress the non-specific binding of IgG (immunoglobulin G). It was immediately exposed to a rabbit anti-mouse primary antibody (1,000:1). After treating at 4° C. for 24 hours, the PVDF membrane was washed 3 times with TBS-T and further incubated with an HRP-conjugated mouse anti-rabbit IgG antibody at room temperature for 1 hour. The immunoreactive bands on the PVDF membrane were analyzed through an ECL (enhanced chemiluminescence) system.

4T1 cells = assay: CCK-8 assay, toxicity on cancer cells; assay type: cell-based, mouse; conditions: CCK-8, 48 hours
Experimental: The toxicity of ARV-771 and ECMal-PROTAC on cancer cells was analyzed by the CCK-8 (cell counting kit-8) assay. 4T1 cells were dispensed into a 96-well culture plate at 3×10^3 cells per well. They were cultured for 24 hours at 37° C. and 5% carbon dioxide atmosphere. The cells were treated with different concentrations of ARV-771 (0.01 to 100 μM), the complex for cancer targeting (ECMal-PROTAC) of example 1 (0.01 to 100 μM), and the complex for cancer targeting (Mal-PROTAC) of example 2 (0.01 to 100 μM) separately, and cultured for 48 hours. After exposing each well to 10% CCK-8-containing culture media for 30 minutes, the viability of 4T1 cells treated with ARV-771 or 4T1 cells treated with ECMal-PROTAC or Mal-PROTAC was analyzed with a microplate reader. The change in cell viability according to the concentration of ARV-771 or ECMal-PROTAC or Mal-PROTAC was calculated using GraphPad Prism 8 software (GraphPad Software, San Diego, CA, USA) by fitting the IC50 (haf-maximal inhibitory concentration) value.

4T1 tumor = assay: In vivo anticancer efficacy, tumor size in 4T1 cancer animal model; parameters: species or system mouse; conditions: 10 mg/kg, tail vein, once every 3 days for 15 days
Experimental: 5-week-old female Balb/c and Balb/c nu/nu mice were purchased from NaraBio, Inc (Seoul, Republic of Korea). The mice underwent a 2-week acclimatization period before the example. The mice were raised under free-feeding conditions in a breeding room maintained at a temperature of 22±2° C. and humidity of 40-60% during the example. The light and dark cycle was regulated at 12-hour intervals. All examples were conducted in compliance with the relevant laws and institutional guidelines of the KIST Institutional Animal Care and Use Committee (IACUC; Approval No.: 2021-143).
Cancer animal models were prepared by inoculating 1×10^6 4T1 cells into the left thigh of the mice, and raising them until the tumor volume reached 50-80 mm^3.
For the preparation of the control group, the comparison group, and the example group, mice were randomly divided into groups of 5.
(§3) The control group was administered saline (10 mg/kg) once every 3 days for 15 days through the tail vein (total 4 administrations). The comparison group was administered ARV-771 (10 mg/kg) once every 3 days for 15 days through the tail vein (total 4 administrations). The example group was administered ECMal-PROTAC 10 mg/kg (wquiv. to ARV-771) of example 1 once every 3 days for 15 days through the tail vein (total 4 administrations).
(§4) Tumor size and body weight were measured every two days for the control group, the comparison group, and the example group.

[2] = Body weight and systemic side effects; assay type: in vivo, mouse; conditions: 10 mg/kg, i.v., once every 3 days for 15 days
Experimental: as §3, §4

[3] = tested on: organ tissue and cancer tissue; assay: H&E histology of major organs and cancer tissue; assay type: in vivo, mouse; conditions: excised after 15 days
Experimental: as §3
The control group, the comparison group, and the example group were euthanized after 15 days, and major organs (heart, liver, lung, spleen, kidney) and cancer tissue were excised.
Furthermore, to analyze cancer cell apoptosis, TUNEL (terminal deoxynucleotidyl transferase dUTP nick end labeling) analysis was performed on cancer tissue excised from the control group, the comparison group, and the example group. Next, histological analysis was performed by H&E (hematoxylin & eosin) staining of the major organ tissues and cancer tissue of each excised group.
According to FIG. 29, major organ tissue and cancer tissue were excised from the control group, the comparison group, and the example group after 15 days. The excised organ tissue and cancer tissue were stained with H&E (hematoxylin & eosin). The H&E stained tissue was observed using a BX51 optical microscope (Olympus, Tokyo, Japan) and a TCS SP8 confocal laser microscope.

liver tissue = assay: TUNEL analysis of liver tissue; assay type: in vivo, mouse; conditions: administered alone (comparison group)
BRD4 and c-Myc = assay: Immunofluorescence of excised cancer tissue (DAPI, anti-BRD4, anti-c-Myc); assay type: in vivo, mouse; conditions: FIG. 33
Experimental: as §3
FIG. 33 is an image taken with a confocal laser scanning microscope after staining cancer tissue excised from the control group (Control, Saline), the comparison group (ARV-771, intravenous injection), and the example group (ECMal-PROTAC, intravenous injection) with DAPI, anti-BRD4, and anti-c-Myc.

c-Myc = assay: Western blot, c-Myc level in 4T1 cells; assay type: cell-based, mouse; conditions: 0 to 10 μM, 24 hours
Experimental: as §1
as §2, with “After blotting, the PVDF membrane was treated with 5% BSA-containing tris buffered saline containing 0.1% Tween 20 (TBS-T) for 2 hours to suppress the non-specific binding of IgG (immunoglobulin G). It was immediately exposed to a rabbit anti-mouse primary antibody (1,000:1). After treating at 4° C. for 24 hours, the PVDF membrane was washed 3 times with TBS-T and further incubated with an HRP-conjugated mouse anti-rabbit IgG antibody at room temperature for 1 hour.” left out

Bcl-2 = assay: Western blot, Bcl-2 level in 4T1 cells; assay type: cell-based, mouse; conditions: 0 to 10 μM, 24 hours
Experimental: as §1
as §2, with “After blotting, the PVDF membrane was treated with 5% BSA-containing tris buffered saline containing 0.1% Tween 20 (TBS-T) for 2 hours to suppress the non-specific binding of IgG (immunoglobulin G). It was immediately exposed to a rabbit anti-mouse primary antibody (1,000:1). After treating at 4° C. for 24 hours, the PVDF membrane was washed 3 times with TBS-T and further incubated with an HRP-conjugated mouse anti-rabbit IgG antibody at room temperature for 1 hour.” left out

[4] = Particle size by DLS before and after binding to albumin; assay type: physicochemical; conditions: BSA 200 μM and ECMal-PROTAC 140 μM in PBS, 1:1, 30 minutes
Experimental: A BSA solution (200 μM) diluted with PBS was co-incubated by mixing it with an ECMal-PROTAC aqueous solution (140 μM) of example 1 at a 1:1 volume ratio.

T1 sequence (P02769 25-607): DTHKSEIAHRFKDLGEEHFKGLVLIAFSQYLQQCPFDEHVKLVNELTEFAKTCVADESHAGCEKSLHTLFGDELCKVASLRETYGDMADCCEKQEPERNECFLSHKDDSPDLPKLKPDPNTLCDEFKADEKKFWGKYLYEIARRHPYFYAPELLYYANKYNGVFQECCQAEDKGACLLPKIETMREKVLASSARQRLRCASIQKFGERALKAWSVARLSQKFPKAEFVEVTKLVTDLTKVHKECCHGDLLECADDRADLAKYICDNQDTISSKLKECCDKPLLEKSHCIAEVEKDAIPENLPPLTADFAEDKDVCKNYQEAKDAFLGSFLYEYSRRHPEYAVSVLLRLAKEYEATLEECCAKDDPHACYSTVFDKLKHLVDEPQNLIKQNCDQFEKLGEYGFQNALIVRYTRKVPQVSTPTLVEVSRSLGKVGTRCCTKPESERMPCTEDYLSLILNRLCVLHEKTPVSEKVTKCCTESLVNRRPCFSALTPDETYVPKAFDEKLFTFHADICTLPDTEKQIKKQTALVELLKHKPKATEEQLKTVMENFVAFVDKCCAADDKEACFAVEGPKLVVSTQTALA

Compound: Cc1ncsc1-c1ccc([C@H](C)NC(=O)[C@@H]2C[C@@H](O)CN2C(=O)[C@@H](NC(=O)COCCCOCCNC(=O)C[C@@H]2N=C(c3ccc(Cl)cc3)c3c(sc(C)c3C)-n3c(C)nnc32)C(C)(C)C)cc1 [ARV-771, reference compound]
- interaction with BSA [1]: did not form an interaction
- DC50 (BRD4; Western blot, read-out: DC50 (half-maximal degradation concentration), BRD4): 3.38 µM
- IC50 (4T1 cells; Mus musculus, 4T1, FIGS. 15A and 15B, read-out: IC50 against cancer cells): 6.38 µM
- cancer size vs control (saline) (4T1 tumor): no significant difference
- increase of cancer size from Day 0 (4T1 tumor): 14.8 times
- systemic side effects [2]: did not show serious systemic side effects
- weight loss [2]: no significant weight loss was observed
- damage in cancer tissue (H&E) [3]: did not observe serious damage
- damage in organ tissue (H&E) ([3]; liver, lung, spleen, kidney, heart): did not observe serious damage
- effect on normal tissue and cancer tissue (liver tissue): affect both normal tissue and cancer tissue
- BRD4 degradation in cancer tissue (BRD4 and c-Myc): insufficient to induce apoptosis in cancer tissue

Compound: Cc1ncsc1-c1ccc([C@H](C)NC(=O)[C@@H]2C[C@@H](OC(=O)CNC(=O)CCOCCOCCNC(=O)CCN3C(=O)C=CC3=O)CN2C(=O)[C@@H](NC(=O)COCCCOCCNC(=O)C[C@@H]2N=C(c3ccc(Cl)cc3)c3c(sc(C)c3C)-n3c(C)nnc32)C(C)(C)C)cc1 [Mal-PROTAC]
- degradation of overexpressed BRD4 protein (BRD4; 0 to 10 μM): induce BRD4 deficiency
- c-Myc level (c-Myc): reduced expression
- Bcl-2 level (Bcl-2): reduced expression
- IC50 compared to native ARV-771 (4T1 cells): slight increase in IC50 compared to native ARV-771

Compound: BSA: bovine serum albumin; 98%
- average particle size [4]: 5.43±1.42 nm
